# Tests used:
# [1] = tested on: Escherichia coli ATCC 25922; type: cell-based; conditions: wild-type E. coli ATCC 25922; MHB pH 7.4, 5×10^5 CFU/mL, 37°C, 18–20 h
# Procedure: All experiments were performed with Escherichia coli ATCC 25922. Stock cultures of the wild-type strain and lineage isolates were stored at –80°C in 4% (w/v) glycerol, 0.5% (w/v) glucose, 2% (w/v) skimmed milk powder and 3% (w/v) tryptone soy powder. Lineage populations were frozen at –80°C in 50% (w/v) glycerol. All experiments were performed at 37°C. Experiments were carried out in cation-adjusted Mueller Hinton II broth (MHB) (Becton Dickinson 212322) adjusted to pH 7.4 or in 1% (w/v) peptone (Becton Dickinson 211677) for MIC determination of natural AMPs. Brain Heart Infusion (BHI) (CM1135) with agar (VWR 20768.292) 1.5% as gelling agent was used throughout for colony plating.
# MIC was determined by using the micro-dilution method according to guidelines of the Clinical and Laboratory Standards Institute. Peptidomimetic 1 and erythromycin 1∶2 serial dilutions were prepared from 1024 µg/mL stock solutions to give a final range of 512-0.5 µg/mL in the wells. Ampicillin 1∶2 serial dilutions were prepared from a 256 µg/mL stock solution to give a final range of 128-0.13 µg/mL in the wells. Polymyxin B and gentamicin 1∶2 serial dilutions were prepared from a 64 µg/mL stock solution to give a final range of 32-0.03 µg/mL in the wells. Also, 1∶2 serial dilutions of the AMPs KR-12, IsCTp, melittin and PEP-1-K were prepared from 64 µg/mL stock solutions to give a final range of 32-0.03 µg/mL in the wells; however this was performed in 1% peptone instead of in MHB since activity was drastically diminished in the latter (not shown).
# The population lineages were tested for their susceptibility towards peptidomimetic 1, polymyxin B, gentamicin and ampicillin. Single-culture isolates selected from these populations were additionally tested against peptidomimetic 1, polymyxin B, erythromycin and the five reference AMPs. To estimate the level of cross-resistance to closely related peptidomimetics, MIC determinations were performed for peptidomimetics 2 and 3 (Figure 1) towards selected isolates. […]
# [2] = tested on: isolates from peptidomimetic 1-exposed E. coli ATCC 25922 lineages; conditions: the three most resistant isolates from lineage no. 2
# Procedure: Continuous selection of resistance was performed for peptidomimetic 1 (Figure 1) and for the clinically relevant natural antimicrobial peptide, polymyxin B. A bacterial suspension of a single colony of E. coli ATCC 25922 was re-inoculated (10 µl) five times in unsupplemented MHB (990 µl). It was then re-inoculated in MHB supplemented with peptidomimetic 1 (ten lineages) or polymyxin B (ten lineages), and after ten re-inoculations at constant peptidomimetic or polymyxin B concentration, the concentrations were doubled. […] Four lineages grown in MHB with MilliQ water were included as control. Re-inoculations were performed twice a day, but were reduced to once a day when growth was slower as assessed by turbidity of the cultures. The total number of passages (supplemented with peptidomimetic/AMP) was 77 times equivalent to approx. 500 generations. For each increase in concentration the lineages were preserved as freezing stocks. Ten colony isolates were randomly selected from each lineage population at 32×MIC and preserved as freezing stocks.
# MIC was determined by using the micro-dilution method according to guidelines of the Clinical and Laboratory Standards Institute. Peptidomimetic 1 and erythromycin 1∶2 serial dilutions were prepared from 1024 µg/mL stock solutions to give a final range of 512-0.5 µg/mL in the wells. Ampicillin 1∶2 serial dilutions were prepared from a 256 µg/mL stock solution to give a final range of 128-0.13 µg/mL in the wells. Polymyxin B and gentamicin 1∶2 serial dilutions were prepared from a 64 µg/mL stock solution to give a final range of 32-0.03 µg/mL in the wells.
# The population lineages were tested for their susceptibility towards peptidomimetic 1, polymyxin B, gentamicin and ampicillin. Single-culture isolates selected from these populations were additionally tested against peptidomimetic 1, polymyxin B, erythromycin and the five reference AMPs. To estimate the level of cross-resistance to closely related peptidomimetics, MIC determinations were performed for peptidomimetics 2 and 3 (Figure 1) towards selected isolates. The bacterial suspensions were grown overnight in MHB at 37°C for determination of the population MIC, or individual isolates were grown overnight on non-selective BHI agar at 37°C. […] In all experiments, bacterial cells were suspended in 0.9% saline to give a turbidity of 0.13 at OD546 (approximately 1×10^8 CFU/mL) and diluted in MHB pH 7.4 to a final concentration of 5×10^5 CFU/mL in each well. Polypropylene plates (Nunc 442587) were used to minimize peptide binding, and the incubation time was 18–20 hours at 37°C. […] MIC was found in a minimum of two technical (population MIC) or biological (isolate MIC) replicates as the lowest concentration of the AMP or antibiotic where no visible growth was observed.
compound,measurement,setting,value
CC(=O)N[C@@H](CCCCNC(=N)N)C(=O)N(CCC(=O)N[C@@H](CCCCNC(=N)N)C(=O)N(CCC(=O)N[C@@H](CCCCNC(=N)N)C(=O)N(CCC(=O)N[C@@H](CCCCNC(=N)N)C(=O)N(CCC(=O)N[C@@H](CCCCNC(=N)N)C(=O)N(CCC(=O)N[C@@H](CCCCNC(=N)N)C(=O)N(CCC(N)=O)Cc1ccccc1)Cc1ccccc1)Cc1ccccc1)Cc1ccccc1)Cc1ccccc1)Cc1ccccc1 [peptidomimetic 3],wt MIC,[1],4 µg/mL
same,MIC,[2],32 µg/mL
same,MIC levels higher than seen for the wild type strain,[2],8 times

# Source: publication PMC3764026, “Adaptive Evolution of Escherichia coli to an α-Peptide/β-Peptoid Peptidomimetic Induces Stable Resistance” (PLoS ONE, 2013)
